Values quoted from earlier work, collected in US20120046286A1, “Novel Compounds” (priority 2009, published 2012).

How the values were obtained:
neutrophils [1] = system: neutrophils
neutrophils [2] = conditions: treatment of neutrophils; Thelen et al. 1994

Compound	effect on neutrophil migration and superoxide release (neutrophils [1])	effect on fMLP-induced respiratory burst response (neutrophils [2])
O=c1cc(N2CCOCC2)oc2c(-c3ccccc3)cccc12 [LY294002]	block neutrophil migration and superoxide release	
COC[C@H]1OC(=O)c2coc3c2[C@@]1(C)C1=C(C3=O)[C@@H]2CCC(=O)[C@@]2(C)C[C@H]1OC(C)=O [wortmannin]	block neutrophil migration and superoxide release	prevents the fMLP-induced respiratory burst response
